Reference: US20110312898A1, “PROPHYLACTIC / THERAPEUTIC AGENT FOR CANCER” (Takeda Pharmaceutical Company Limited, priority 2008, published 2011)
Square brackets hold non-standard residues; d marks the D form. Arg(Me) = CNC(=N)NCCC[C@H](N)C(=O)O; Hyp = O=C(O)[C@@H]1C[C@@H](O)CN1; azaGly = NNC(=O)O

How the values were obtained:
Dunning R3327-G cells = assay: Androgen-independent antitumor effects, Dunning R3327-G cells implanted in orchiectomized Copenhagen rats; assay type: in vivo, rat; conditions: 50 nmol/kg/W, subcutaneous ALZET pump; day 52 following the start of dosing; compared with solvent group
Description: Dunning R3327-G cells, an androgen-sensitive rat prostate cancer cell line, were implanted into orchiectomized Copenhagen rats, and the androgen-independent antitumor effects by Compound No. 550 and Compound No. 723 were investigated.
R3327-G cells (7×10^6) were implanted subcutaneously in 10-week-old orchiectomized male Copenhagen rats. Fifty days after implantation, the rats were divided into groups based on the tumor volume, and were then assigned to a Compound 550—50 nmol/kg/W group, a Compound No. 723—50 nmol/kg/W group, and a solution group (each group consisting of 10 animals). The dose was calculated based on the mean weight of the animals on the day that dosing was begun. Administration was carried out by subcutaneous implantation in the dorsal region using an ALZET pump. The tumor diameter was measured on days 50, 65, 71, 78, 91 and 102 following cell implantation (days 0, 15, 21, 28, 41 and 52 following the start of dosing). The tumor volume (mm^3) was calculated as follows: major axis×minor axis^2÷2. Owing to deaths and the euthanization of animals in the course of the tests, on day 52 following the start of dosing (day 102 after transplantation), only six animals remained in the solution group and only seven animals remained in the Compound No. 723 group.

DU145 = assay: Antitumor activity in DU145 tumor-bearing male rat model; assay type: in vivo; conditions: microcapsule powder s.c. 10, 30 and 60 days after transplantation; No. 550 10 mg/kg, No. 723 1 or 10 mg/kg; 74 days after transplantation; vs surgically castrated group
Description: Evaluation of antitumor activity of the metastin peptide derivative in DU145 tumor-bearing male rat model
Antitumor activity of Compound No. 550 and Compound No. 723 against a DU145 tumor-bearing male rat model was evaluated. Specifically, 1×10^6 cells/100 μL suspension of DU145 (androgen-independent cell line, GPR54 highly expressing cell line, ATCC) was mixed with 100 μL of basement membrane matrix: Matrigel (trade name, BD Biosciences), and the obtained mixture was transplanted under the abdominal skin of 7-week-old F344/NJc1-rnu/rnu male rats (CLEA Japan, Inc.) which had been etherized. 10 days after the transplantation, the rats in which the volume of subcutaneous tumor reached 200 mm^3 were divided into 4 groups (Groups A-D, 10 rats for each group). […]
Regarding Group D, the rats were surgically castrated and used as the negative control group. […] 74 days after the transplantation of DU145 cells, the tumor volume (longer diameter×shorter diameter×shorter diameter/2) was measured. […]

[1] = test system: human prostate cancer cell line VCaP; assay: Growth-inhibitory activity on VCaP spheroids (CellTiter-Glo); assay type: cell-based; conditions: 10% DCC-FCS
Description: Evaluation of the growth-inhibitory activity of the metastin peptide derivative using human prostate cancer cell line VCaP
Regarding Compound No. 723, the inhibitory activity on androgen-independent growth of human prostate cancer cell line VCaP (CRL-2876, American Type Culture Collection) was evaluated. […] in the state of three-dimensional culture (spheroid) was used in the evaluation. Specifically, VCaP cells were suspended in a DMEM medium (Ref. No. 11995, Invitrogen) containing 10% FCS (Cat. No. 171012, Cell Culture Bioscience) to set the concentration to 1.5×10^6 cells/mL. The obtained suspension was spotted on a cover of a tissue culture dish (Ref. No. 353003, FALCON) (20 μL for each) to perform Hanging drop culture (3×10^4 cells/drop). In order to prevent drying, 10 mL of DPBS (Ref. No. 14190, Invitrogen) was added to the culture dish. […]
(§1) Cell growth was quantified 9 days after the start of the treatment with Compound No. 723 by measuring the chemical luminescence evoked by cellular ATP using CellTiter-Glo Luminescent Cell Viability Assay (Promega). Wallac 1420 ARVO MX/Light (Parkin Elmer) was used for the measurement of the luminescence intensity.

[2] = test system: human prostate cancer cell line 22Rv1; assay: Growth-inhibitory activity on 22Rv1 spheroids (CellTiter-Glo); assay type: cell-based; conditions: 10% DCC-FCS
Description: Evaluation of the growth-inhibitory activity of the metastin peptide derivative using human prostate cancer cell line 22Rv1
Regarding Compound No. 723, the growth-inhibitory activity on androgen-independent human prostate cancer cell line 22Rv1 (CRL-2505, American Type Culture Collection) was evaluated. […] in the state of three-dimensional culture (spheroid) was used in the evaluation. Specifically, 22Rv1 cells were suspended in a RPMI1640 medium (Ref. No. 22400, Invitrogen) containing 10% FCS (Cat. No. 171012, Cell Culture Bioscience) to set the concentration to 1.5×10^6 cells/mL. The obtained suspension was spotted on a cover of a tissue culture dish (Ref. No. 353003, FALCON) (20 μL for each) to perform Hanging drop culture ([…]). In order to prevent drying, 10 mL of DPBS (Ref. No. 14190, Invitrogen) was added to the culture dish. […]
as §1

| Substance | antitumor effects (tumor volume) (Dunning R3327-G cells) | antitumor effects (tumor volume) (DU145) | Luminescence intensity ([1]; 1 μM supplied every 12 hours for 8 days, 9 days after start of treatment, cellular ATP, n = 18, Control 564458 ± 27628) | androgen-independent growth of human prostate cancer cells (VCaP) ([1]; 1 μM, vs control) | Luminescence intensity ([2]; 1 μM supplied every 12 hours for 8 days, 9 days after start of treatment, cellular ATP, n = 18, Control 483469 ± 55917) | growth of androgen-independent human prostate cancer cells (22Rv1) in the absence of androgen ([2]; 1 μM, vs control) |
| --- | --- | --- | --- | --- | --- | --- |
| Ac-D-Tyr-Hyp-Asn-Thr-Phe-AzaGly-Leu-Arg(Me)-Trp-NH2 (Ac-[dY][Hyp]NTF[azaGly]L[Arg(Me)]W-NH2) [Compound No. 723] | significant antitumor effects | antitumor effects more than the surgical castration | 507191 ± 73146 | significantly reduced the androgen-independent growth | 401291 ± 40565 | significantly reduced the growth |
| Ac-[dY][dW]NTF[azaGly]L[Arg(Me)]W-NH2 [Compound No. 550] | significant antitumor effects | antitumor effects more than the surgical castration |  |  |  |  |
